Source: US20140179521A1, “COMPOSITIONS INCORPORATING HYTd” (Agrinos AS, priority 2012, published 2014)

What was measured:
Type in all cases: in vivo
small grain cereals = experiment: Small grain cereal replicated field experiments, grain yield; conditions: applied topically at growth stage 37
Mildew = experiment: Small grain cereal replicated field experiments, mildew level / disease control; conditions: small grain cereals
[1] = test system: potato variety Maris Piper; experiment: Potato field experiment, tuber yield
Streptomyces scabies = experiment: Potato field experiment, expression of Streptomyces scabies; conditions: potato Maris Piper, field plots, treatment applied at planting
Rhizoctonia solani = experiment: Potato field experiment, expression of Rhizoctonia solani
[2] = potato Maris Piper, field plots, treatment applied at planting
[3] = potatoes, in-furrow application, field observations

SMILES: CO/C=C(/C(=O)OC)c1ccccc1Oc1cc(Oc2ccccc2C#N)ncn1 [azoxystrobin]
- Yield t/ha (small grain cereals): 10.44 t/ha
- disease control / period of disease suppression (in words) (Mildew): significant levels of disease control
- Mildew level 7 days after treatment (Mildew; 7 days after treatment): 4%
- Mildew level 21 days after treatment (Mildew; 21 days after treatment): 11%
- Yield t/ha [1, 2]: 62.17 t/ha
- effect on yield (in words) [1, 3]: little direct yield increase
- S. scabies (Streptomyces scabies): 46%
- R. solani (Rhizoctonia solani; [2]): 2%
- control of Rhizoctonia (in words) (Rhizoctonia solani; [3]): high level disease control
